Results on 29 compounds are retold here after patent US20230365592A1 (Agios Pharmaceuticals, Inc., priority 2022, published 2023).

What is called AC50 is the concentration at which the activity in the assay is half-maximal.

A value given as a limit tells only on which side of the number the result lay.

The first assay addresses T1, human PAH with the R408W mutation (Homo sapiens, UniProt P00439, R408W).
T1 construct: expressed in transfected cells
T1 sequence (P00439 1-452 R408W): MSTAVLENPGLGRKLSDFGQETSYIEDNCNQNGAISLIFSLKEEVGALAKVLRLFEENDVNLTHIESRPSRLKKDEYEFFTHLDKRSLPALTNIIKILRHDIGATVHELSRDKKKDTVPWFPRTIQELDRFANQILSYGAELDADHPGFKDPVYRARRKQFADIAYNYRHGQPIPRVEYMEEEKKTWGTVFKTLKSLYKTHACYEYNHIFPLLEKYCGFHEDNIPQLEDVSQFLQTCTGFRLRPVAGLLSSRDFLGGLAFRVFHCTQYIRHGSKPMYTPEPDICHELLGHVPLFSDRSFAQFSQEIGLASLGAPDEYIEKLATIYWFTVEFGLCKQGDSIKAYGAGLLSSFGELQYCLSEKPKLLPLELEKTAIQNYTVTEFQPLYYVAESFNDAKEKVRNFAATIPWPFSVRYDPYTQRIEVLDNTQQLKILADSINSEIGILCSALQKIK
Description: Cell Based Phenylalanine Flux Assay.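 Note: after compound treatment, cells received sepiapterin plus isotope-labelled Phenylalanine for 4 hours, then labelled Tyrosine in the medium was quantified, 10-point 2-fold dilution series run in duplicate.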 The note with it: A375 cells expressing R408W PAH; 24 hrs with compound, then 20 µM sepiapterin and 800 µM 13C9,15N-Phenylalanine for 4 hours; 13C-Tyrosine by LC-MS; average where tested multiple times; read-out: AC50.
Take `Cc1ccc2cc(C3c4nc[nH]c4CCN3C(=O)c3nnc(C(C)(C)O)o3)nn2c1` (centres unmarked): the half-maximal activity concentration (AC50) is 1000 to 5000 nM.

Regarding `FC(F)(F)c1cccn2nc(C3c4nc[nH]c4CCN3c3nnc(-c4cccnn4)o3)cc12` (centres unmarked), the AC50 lay in the range of 1000 to 5000 nM. Same read-out and setting: under `Cc1nnc(C(=O)N2CCc3[nH]cnc3C2c2cc3cc(F)ccn3n2)o1` (centres unmarked) stands 1000 to 5000 nM. `O=C(c1oc(-c2ccccn2)nc1C1CC1)N1CCCc2[nH]cnc2[C@H]1c1cc2ccccn2n1` (single isomer, unassigned): the AC50 fell in the range of 1000 to 5000 nM. On to `Cc1ccc2cc(C3c4nc[nH]c4CCN3C(=O)c3nnc(C)o3)nn2c1` (centres unmarked), for which the AC50 fell in the range of 1000 to 5000 nM. Still for that read-out and setting: as for `Cc1cccn2nc(C3c4nc[nH]c4CCN3c3nnc(-c4cccnc4)o3)cc12` (centres unmarked), the figure is 1000 to 5000 nM; as for `Cn1ncc(C(=O)N2CCc3[nH]cnc3C2c2cc3ccccn3n2)c1C(F)F` (centres unmarked), 1000 to 5000 nM.

The assay is the same for the next values; noted with them: A375 cells expressing human PAH R408W; 24 hrs compound incubation; 13C-Tyrosine by LC-MS; average where tested multiple times; read-out: AC50.
For `CC(C)(C)c1ncc(C(=O)N2CCc3[nH]cnc3[C@H]2c2cc3c(C(F)(F)F)cccn3n2)o1` [Example 2142, (S)-(2-(tert-butyl)oxazol-5-yl)(4-(4-(trifluoromethyl)pyrazolo[1,5-a]pyridin-2-yl)-1,4,6,7-tetrahydro-5H-imidazo[4,5-c]pyridin-5-yl)methanone], the AC50 is less than 500 nM. With `O=C(c1cnc(-c2ccccn2)o1)N1CCc2[nH]cnc2[C@@H]1c1cc2c(C(F)(F)F)cccn2n1` [Example 2037, (R)-(2-(pyridin-2-yl)oxazol-5-yl)(4-(4-(trifluoromethyl)pyrazolo[1,5-a]pyridin-2-yl)-1,4,6,7-tetrahydro-5H-imidazo[4,5-c]pyridin-5-yl)methanone], the AC50 was more than 5000 nM. `O=C(c1nc2ccccc2o1)N1CCc2[nH]cnc2[C@H]1c1cc2ccccn2n1` [Example 2048, (S)-benzo[d]oxazol-2-yl(4-(pyrazolo[1,5-a]pyridin-2-yl)-1,4,6,7-tetrahydro-5H-imidazo[4,5-c]pyridin-5-yl)methanone]: the AC50 fell in the range of 500 to 1000 nM. On the same count and under the same terms, as for `Cn1cc(-c2nc(C3CC3)c(C(=O)N3CCc4[nH]cnc4[C@@H]3c3cc4c(C(F)F)cccn4n3)o2)cn1` [Example 2115, (R)-(4-cyclopropyl-2-(1-methyl-1H-pyrazol-4-yl)oxazol-5-yl)(4-(4-(difluoromethyl)pyrazolo[1,5-a]pyridin-2-yl)-1,4,6,7-tetrahydro-5H-imidazo[4,5-c]pyridin-5-yl)methanone], the figure is 1000 to 5000 nM.

With `CC(C)c1cccn2nc([C@H]3c4nc[nH]c4CCN3C(=O)c3nnc(C(C)(C)F)o3)cc12` [Example 1885, (R)-(5-(2-fluoropropan-2-yl)-1,3,4-oxadiazol-2-yl)(4-(4-isopropylpyrazolo[1,5-a]pyridin-2-yl)-1,4,6,7-tetrahydro-5H-imidazo[4,5-c]pyridin-5-yl)methanone], the AC50 is more than 5000 nM.

Consider `CC(C)c1cccn2nc([C@@H]3c4nc[nH]c4CCN3C(=O)c3nnc(C(C)(C)C)o3)cc12` [Example 1902, (S)-(5-(tert-butyl)-1,3,4-oxadiazol-2-yl)(4-(4-isopropylpyrazolo[1,5-a]pyridin-2-yl)-1,4,6,7-tetrahydro-5H-imidazo[4,5-c]pyridin-5-yl)methanone], for which the AC50 is less than 500 nM. Regarding `Cc1cccn2nc([C@@H]3c4nc[nH]c4CCN3C(=O)c3ocnc3C3CC3)cc12` [Example 1944, (S)-(4-cyclopropyloxazol-5-yl)(4-(4-methylpyrazolo[1,5-a]pyridin-2-yl)-1,4,6,7-tetrahydro-5H-imidazo[4,5-c]pyridin-5-yl)methanone], the AC50 was less than 500 nM. On to `FC(F)(F)c1ccc(N2CCc3[nH]cnc3[C@@H]2c2cc3cccc(Cl)n3n2)nc1` [Example 2137, (R)-4-(7-chloropyrazolo[1,5-a]pyridin-2-yl)-5-(5-(trifluoromethyl)pyridin-2-yl)-4,5,6,7-tetrahydro-1H-imidazo[4,5-c]pyridine], for which the AC50 was more than 5000 nM.

Staying with this assay, now noted: A375 cells expressing human R408W PAH; 24 hrs compound incubation; 13C-Tyrosine by LC-MS; average where tested multiple times; read-out: AC50.
As for `O=C(c1nnc(-c2ncccc2F)o1)N1CCc2[nH]cnc2[C@@H]1c1cc2c(OC(F)F)cccn2n1` [Example 1656, (R)-(4-(4-(difluoromethoxy)pyrazolo[1,5-a]pyridin-2-yl)-6,7-dihydro-1H-imidazo[4,5-c]pyridin-5(4H)-yl)(5-(3-fluoropyridin-2-yl)-1,3,4-oxadiazol-2-yl)methanone], the AC50 is more than 5000 nM. On to `O=C(CC1CC1)N1CCc2[nH]cnc2[C@@H]1c1cc2ccccn2n1` [Example 615, (R)-2-cyclopropyl-1-(4-(pyrazolo[1,5-a]pyridin-2-yl)-6,7-dihydro-1H-imidazo[4,5-c]pyridin-5(4H)-yl)ethanone], for which the AC50 fell in the range of 1000 to 5000 nM. Same read-out and setting: under `COc1cccn2nc([C@H]3c4nc[nH]c4CCN3C(=O)c3nnc(C(C)(C)F)o3)cc12` [Example 970, (R)-(5-(2-fluoropropan-2-yl)-1,3,4-oxadiazol-2-yl)(4-(4-methoxypyrazolo[1,5-a]pyridin-2-yl)-6,7-dihydro-1H-imidazo[4,5-c]pyridin-5(4H)-yl)methanone] stands more than 5000 nM; under `O=C(c1nnc(-c2ccn(C(F)F)n2)o1)N1CCc2[nH]cnc2[C@@H]1c1cc2c(C(F)(F)F)cccn2n1` [Example 908, (R)-(5-(1-(difluoromethyl)-1H-pyrazol-3-yl)-1,3,4-oxadiazol-2-yl)(4-(4-(trifluoromethyl)pyrazolo[1,5-a]pyridin-2-yl)-6,7-dihydro-1H-imidazo[4,5-c]pyridin-5(4H)-yl)methanone], 1000 to 5000 nM; under `Cc1ccc2cc([C@@H]3c4nc[nH]c4CCN3C(=O)c3nnc(C(C)(C)F)o3)nn2c1` [Example 1171, (S)-(5-(2-fluoropropan-2-yl)-1,3,4-oxadiazol-2-yl)(4-(6-methylpyrazolo[1,5-a]pyridin-2-yl)-6,7-dihydro-1H-imidazo[4,5-c]pyridin-5(4H)-yl)methanone], 500 to 1000 nM.

Take `Cc1nc(C(C)(C)F)oc1C(=O)N1CCc2[nH]cnc2[C@H]1c1cc2cccc(Cl)n2n1` [Example 1266, (S)-(4-(7-chloropyrazolo[1,5-a]pyridin-2-yl)-6,7-dihydro-1H-imidazo[4,5-c]pyridin-5(4H)-yl)(2-(2-fluoropropan-2-yl)-4-methyloxazol-5-yl)methanone]: the AC50 is less than 500 nM.

For `CC(C)c1nnc(C(=O)N2CCc3[nH]cnc3[C@@H]2c2cc3c(C(F)(F)F)cccn3n2)o1` [Example 1487, (R)-(5-isopropyl-1,3,4-oxadiazol-2-yl)(4-(4-(trifluoromethyl)pyrazolo[1,5-a]pyridin-2-yl)-6,7-dihydro-1H-imidazo[4,5-c]pyridin-5(4H)-yl)methanone], the concentration at half-maximal activity (AC50) was more than 5000 nM. Take `Cc1cccn2nc([C@H]3c4nc[nH]c4CCN3C(=O)c3nnc(C4CC(F)(F)C4)o3)cc12` [Example 1599, (R)-(5-(3,3-difluorocyclobutyl)-1,3,4-oxadiazol-2-yl)(4-(4-methylpyrazolo[1,5-a]pyridin-2-yl)-6,7-dihydro-1H-imidazo[4,5-c]pyridin-5(4H)-yl)methanone]: the AC50 was more than 5000 nM. In the case of `Cc1cccn2nc([C@@H]3c4nc[nH]c4CCN3C(=O)c3nnc(-c4ncccn4)o3)cc12` [Example 1311, (S)-(4-(4-methylpyrazolo[1,5-a]pyridin-2-yl)-6,7-dihydro-1H-imidazo[4,5-c]pyridin-5(4H)-yl)(5-(pyrimidin-2-yl)-1,3,4-oxadiazol-2-yl)methanone], the half-maximal activity concentration (AC50) fell in the range of 500 to 1000 nM. On to `CC(C)(O)c1nc(C(F)(F)F)c(C(=O)N2CCc3[nH]cnc3[C@H]2c2cc3cccc(C(F)(F)F)n3n2)o1` [Example 1178, (S)-(2-(2-hydroxypropan-2-yl)-4-(trifluoromethyl)oxazol-5-yl)(4-(7-(trifluoromethyl)pyrazolo[1,5-a]pyridin-2-yl)-6,7-dihydro-1H-imidazo[4,5-c]pyridin-5(4H)-yl)methanone], for which the half-maximal activity concentration (AC50) is less than 500 nM. Regarding `Cc1cccn2nc([C@@H]3c4nc[nH]c4CCN3c3nnc(C(F)F)o3)cc12` [Example 1711, (S)-2-(difluoromethyl)-5-(4-(4-methylpyrazolo[1,5-a]pyridin-2-yl)-6,7-dihydro-1H-imidazo[4,5-c]pyridin-5(4H)-yl)-1,3,4-oxadiazole], the half-maximal activity concentration (AC50) was in the range of 500 to 1000 nM. In the case of `CC(C)(O)c1nc(C(F)(F)F)c(C(=O)N2CCc3[nH]cnc3[C@@H]2c2cc3c(F)cccn3n2)o1` [Example 745, (R)-(4-(4-fluoropyrazolo[1,5-a]pyridin-2-yl)-6,7-dihydro-1H-imidazo[4,5-c]pyridin-5(4H)-yl)(2-(2-hydroxypropan-2-yl)-4-(trifluoromethyl)oxazol-5-yl)methanone], the concentration at half-maximal activity (AC50) fell in the range of 1000 to 5000 nM.

Regarding `CC(C)(O)c1nc(C(F)(F)F)c(C(=O)N2CCc3[nH]cnc3[C@@H]2c2cc3cccc(Cl)n3n2)o1` [Example 1193, (R)-(4-(7-chloropyrazolo[1,5-a]pyridin-2-yl)-6,7-dihydro-1H-imidazo[4,5-c]pyridin-5(4H)-yl)(2-(2-hydroxypropan-2-yl)-4-(trifluoromethyl)oxazol-5-yl)methanone], the concentration at half-maximal activity (AC50) was 1000 to 5000 nM. Take `Cn1ccc(-c2nnc(C(=O)N3CCc4[nH]cnc4[C@@H]3c3cc4cccc(C(F)F)n4n3)o2)n1` [Example 1439, (R)-(4-(7-(difluoromethyl)pyrazolo[1,5-a]pyridin-2-yl)-6,7-dihydro-1H-imidazo[4,5-c]pyridin-5(4H)-yl)(5-(1-methyl-1H-pyrazol-3-yl)-1,3,4-oxadiazol-2-yl)methanone]: the AC50 was more than 5000 nM.
